The target in one series is T1, human mGluR5d (Homo sapiens, UniProt P41594).
T1 construct: expressed in transfected cells; The IP3 assay uses GHEK cells stably expressing human mGluR5d
Description: FLIPR assay, mobilization of intracellular calcium in cells expressing mGluR5d. It counts as cell-based. An excerpt: The properties of the compounds of the invention can be analyzed using standard assays for pharmacological activity. Examples of glutamate receptor assays are well known in the art as described in for example Aramori et al, Neuron 8:757 (1992), Tanabe et al., Neuron 8:169 (1992), Miller et al., J. Neuroscience 15: 6103 (1995), Balazs, et al., J. Neurochemistry 69:151 (1997). The methodology described in these publications is incorporated herein by reference. Conveniently, the compounds of the invention can be studied by means of an assay (FLIPR) that measures the mobilization of intracellular calcium, [Ca^2+]i in cells expressing mGluR5 or another assay (IP3) that measures inositol phosphate turnover.
Cells expressing human mGluR5d as described in WO97/05252 are seeded at a density of 100,000 cells per well on collagen coated clear bottom 96-well plates with black sides and experiments are done 24 h following seeding. […] The fluorescence signal is sampled 50 times at 1 second intervals followed by 3 samples at 5 second intervals immediately after each of the two additions. Responses are measured as the difference between the peak height of the response to agonist, less the background fluorescence within the sample period. […]
On the technique in general: Calcium flux is commonly read through the fluorescence of an indicator in the cells.

A short description of series [1]: Determination of brain to plasma ratio in rat. The series is classed as in vivo, female Sprague Dawley rats. To be noted: female, Sprague-Dawley, brain and plasma, read-out: Brain to Plasma Ratio of compound in Rat. The method, then: Brain to plasma ratios are estimated in female Sprague Dawley rats. The compound is dissolved in water or another appropriate vehicle. For determination of brain to plasma ratio the compound is administrated as a subcutaneous, or an intravenous bolus injection, or an intravenous infusion, or an oral administration. At a predetermined time point after the administration a blood sample is taken with cardiac puncture. The rat is terminated by cutting the heart open, and the brain is immediately retained. The blood samples are collected in heparinized tubes and centrifuged within 30 minutes, in order to separate the plasma from the blood cells. The plasma is transferred to 96-well plates and stored at −20° C. until analysis. The brains are divided in half, and each half is placed in a pre-tarred tube and stored at −20° C. until analysis. Prior to the analysis, the brain samples are thawed and 3 ml/g brain tissue of distilled water is added to the tubes. The brain samples are sonicated in an ice bath until the samples are homogenized. Both brain and plasma samples are precipitated with acetonitrile. After centrifugation, the supernatant is diluted with 0.2% formic acid. […] After reconstitution of the residuals the samples are ready for injection onto the HPLC column.

The source of these data is patent US20070259895A1, “MGluR5 modulators VI” (AstraZeneca AB, priority 2006, published 2007).

By IC50 is commonly meant the midpoint of a concentration-inhibition curve.

T1 sequence (P41594 21-942 isoform P41594-3 limits assumed): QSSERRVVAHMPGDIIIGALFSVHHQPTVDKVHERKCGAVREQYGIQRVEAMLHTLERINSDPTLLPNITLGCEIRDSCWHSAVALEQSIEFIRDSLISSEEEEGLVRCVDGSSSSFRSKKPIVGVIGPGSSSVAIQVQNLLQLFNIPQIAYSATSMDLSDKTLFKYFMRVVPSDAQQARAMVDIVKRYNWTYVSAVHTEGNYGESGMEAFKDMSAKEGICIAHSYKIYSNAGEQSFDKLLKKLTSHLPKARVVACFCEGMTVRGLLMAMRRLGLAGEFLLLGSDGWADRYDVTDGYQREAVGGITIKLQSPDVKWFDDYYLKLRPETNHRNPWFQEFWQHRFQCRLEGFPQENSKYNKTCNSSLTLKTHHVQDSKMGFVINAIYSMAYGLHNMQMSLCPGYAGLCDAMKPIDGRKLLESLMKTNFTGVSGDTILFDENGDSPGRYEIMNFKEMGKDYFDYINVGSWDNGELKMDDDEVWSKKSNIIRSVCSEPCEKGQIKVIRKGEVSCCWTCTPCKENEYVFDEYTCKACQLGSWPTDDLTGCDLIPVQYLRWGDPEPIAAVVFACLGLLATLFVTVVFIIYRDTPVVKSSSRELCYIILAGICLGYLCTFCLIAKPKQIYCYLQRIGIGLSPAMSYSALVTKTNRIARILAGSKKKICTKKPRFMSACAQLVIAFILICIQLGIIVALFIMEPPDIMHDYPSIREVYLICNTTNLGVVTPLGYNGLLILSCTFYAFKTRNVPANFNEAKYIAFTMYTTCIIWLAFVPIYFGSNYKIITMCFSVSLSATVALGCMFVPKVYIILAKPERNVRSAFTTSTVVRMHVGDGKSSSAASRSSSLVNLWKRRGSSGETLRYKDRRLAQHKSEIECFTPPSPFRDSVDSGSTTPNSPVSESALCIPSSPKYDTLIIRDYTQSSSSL

Regarding `COc1cc(-c2nnc3n2CCCN3Cc2cc(-c3cccc(Cl)c3)on2)ccn1` [Example 11.2, 8-{[5-(3-Chlorophenyl)isoxazol-3-yl]methyl}-3-(2-methoxypyridin-4-yl)-5,6,7,8-tetrahydro[1,2,4]triazolo[4,3-a]pyrimidine], the IC50 at human mGluR5d worked out at 51 nM. Besides, the Kp in series [1] is 0.36.
